What follows are compounds tested against T1, human GlyT1c transporter (Homo sapiens, UniProt P48067) (assay: Radioligand binding assay using recombinant CHO cell membranes expressing human GlyT1). Details: apparent Ki, read-out: Kiapp (Inhibition of GlyT1 radioligand binding).
T1 construct: expressed in transfected cells; host or cells: recombinant CHO cells (membranes); the line hGlyT1c_5_CHO is named only for the uptake assay
T1 sequence (P48067 1-706): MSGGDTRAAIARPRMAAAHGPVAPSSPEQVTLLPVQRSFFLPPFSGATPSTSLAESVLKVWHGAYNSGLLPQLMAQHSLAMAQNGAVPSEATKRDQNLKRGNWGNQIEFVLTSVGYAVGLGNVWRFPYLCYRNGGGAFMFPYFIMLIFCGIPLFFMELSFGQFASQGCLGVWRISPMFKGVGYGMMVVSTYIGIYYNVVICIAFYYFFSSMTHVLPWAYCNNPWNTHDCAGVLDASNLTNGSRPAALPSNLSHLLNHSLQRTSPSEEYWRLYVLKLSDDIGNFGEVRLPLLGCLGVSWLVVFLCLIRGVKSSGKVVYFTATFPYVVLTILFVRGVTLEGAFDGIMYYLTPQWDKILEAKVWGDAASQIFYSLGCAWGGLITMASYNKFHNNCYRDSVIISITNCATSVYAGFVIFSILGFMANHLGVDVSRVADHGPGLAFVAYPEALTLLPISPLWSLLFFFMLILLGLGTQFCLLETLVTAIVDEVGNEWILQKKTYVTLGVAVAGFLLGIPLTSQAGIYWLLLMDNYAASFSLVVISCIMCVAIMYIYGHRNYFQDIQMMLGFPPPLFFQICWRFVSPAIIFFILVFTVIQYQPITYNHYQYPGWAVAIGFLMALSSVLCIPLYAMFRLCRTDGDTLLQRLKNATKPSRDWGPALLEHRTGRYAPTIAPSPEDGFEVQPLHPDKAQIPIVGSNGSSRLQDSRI
Experimental: 2. Radioligand Binding Assays Using Recombinant CHO Cell Membranes Expressing Human GlyT1:
Radioligand binding to human GlyT1c transporter-expressing membranes was carried out as described in Mezler et al., Molecular Pharmacology 74:1705-1715, 2008.

SMILES | Ki [µM]
Cn1cc(S(=O)(=O)N2CC(c3ccc(F)cc3)C(c3cccc(Cl)c3)=N2)cn1 (stereo not shown) [Example 7, 4-{[3-(3-chlorophenyl)-4-(4-fluorophenyl)-4,5-dihydro-1H-pyrazol-1-yl]sulfonyl}-1-methyl-1H-pyrazole] | ≤ 0.01
Cn1cc(S(=O)(=O)N2CC(c3ccccc3)C(c3cc(C(F)(F)F)ccn3)=N2)nn1 (stereo not shown) [Example 23, 2-{1-[(1-methyl-1H-1,2,3-triazol-4-yl)sulfonyl]-4-phenyl-4,5-dihydro-1H-pyrazol-3-yl}-4-(trifluoromethyl)pyridine] | ≤ 10
Cn1cnc(S(=O)(=O)N2CC(c3cccc(Cl)c3)C(c3ccccc3)=N2)c1 (stereo not shown) [Example 30, 4-(3-chlorophenyl)-1-[(1-methyl-1H-imidazol-4-yl)sulfonyl]-3-phenyl-4,5-dihydro-1H-pyrazole] | ≤ 0.1
Cn1cc(S(=O)(=O)N2CC(c3ccccc3)C(c3ccccn3)=N2)nn1 (stereo not shown) [Example 20, 2-{1-[(1-methyl-1H-1,2,3-triazol-4-yl)sulfonyl]-4-phenyl-4,5-dihydro-1H-pyrazol-3-yl}pyridine] | ≤ 10
Cn1cc(S(=O)(=O)N2CC(c3ccc(F)cc3)C(c3cccc(C(F)(F)F)c3)=N2)cn1 (stereo not shown) [Example 10, 4-({4-(4-fluorophenyl)-3-[3-(trifluoromethyl)phenyl]-4,5-dihydro-1H-pyrazol-1-yl}sulfonyl)-1-methyl-1H-pyrazole] | ≤ 10
CC(C)CC1=NN(S(=O)(=O)c2cn(C)cn2)CC1c1ccccc1 (stereo not shown) [Example 17, 1-[(1-methyl-1H-imidazol-4-yl)sulfonyl]-3-(2-methylpropyl)-4-phenyl-4,5-dihydro-1H-pyrazole] | ≤ 10
Cn1cc(S(=O)(=O)N2CC(c3ccc(F)cc3)C(c3ccccc3)=N2)nn1 (stereo not shown) [Example 3, 4-{[4-(4-fluorophenyl)-3-phenyl-4,5-dihydro-1H-pyrazol-1-yl]sulfonyl}-1-methyl-1H-1,2,3-triazole] | ≤ 0.1
Cn1cc(S(=O)(=O)N2CC(c3ccccc3)C(c3cccc(OC(F)(F)F)c3)=N2)nn1 (stereo not shown) [Example 15, 1-methyl-4-({4-phenyl-3-[3-(trifluoromethoxy)phenyl]-4,5-dihydro-1H-pyrazol-1-yl}sulfonyl)-1H-1,2,3-triazole] | ≤ 0.1
Cn1cnc(S(=O)(=O)N2CC(c3ccccc3)C(c3ccccn3)=N2)c1 (stereo not shown) [Example 18, 2-{1-[(1-methyl-1H-imidazol-4-yl)sulfonyl]-4-phenyl-4,5-dihydro-1H-pyrazol-3-yl}pyridine] | ≤ 10
Cn1cc(S(=O)(=O)N2CC(c3ccccc3)C(c3ccc(Cl)cc3)=N2)cn1 (stereo not shown) [Example 11, 4-{[3-(4-chlorophenyl)-4-phenyl-4,5-dihydro-1H-pyrazol-1-yl]sulfonyl}-1-methyl-1H-pyrazole] | ≤ 10
Cn1cnc(S(=O)(=O)N2CC(c3ccccc3)C(c3ccc(Cl)cc3)=N2)c1 (stereo not shown) [Example 2, 3-(4-chlorophenyl)-1-[(1-methyl-1H-imidazol-4-yl)sulfonyl]-4-phenyl-4,5-dihydro-1H-pyrazole] | ≤ 0.1
Cn1cnc(S(=O)(=O)N2CC(c3ccc(F)cc3)C(c3cccc(C(F)(F)F)c3)=N2)c1 (stereo not shown) [Example 8, 4-(4-fluorophenyl)-1-[(1-methyl-1H-imidazol-4-yl)sulfonyl]-3-[3-(trifluoromethyl)phenyl]-4,5-dihydro-1H-pyrazole] | ≤ 0.1
Cn1cc(S(=O)(=O)N2CC(c3cccc(Cl)c3)C(c3ccccc3)=N2)cn1 (stereo not shown) [Example 29, 4-{[4-(3-chlorophenyl)-3-phenyl-4,5-dihydro-1H-pyrazol-1-yl]sulfonyl}-1-methyl-1H-pyrazole] | ≤ 10
Cn1cnc(S(=O)(=O)N2CC(c3ccccc3)C(c3ccc(Cl)cc3)=N2)c1 (single isomer, unassigned) [Example 16a, 3-(4-chlorophenyl)-1-[(1-methyl-1H-imidazol-4-yl)sulfonyl]-4-phenyl-4,5-dihydro-1H-pyrazole] | ≤ 0.01
Cn1cnc(S(=O)(=O)N2CC(c3ccccc3)C(c3cccc(OC(F)(F)F)c3)=N2)c1 (stereo not shown) [Example 13, 1-[(1-methyl-1H-imidazol-4-yl)sulfonyl]-4-phenyl-3-[3-(trifluoromethoxy)-phenyl]-4,5-dihydro-1H-pyrazole] | ≤ 0.1
Cn1cnc(S(=O)(=O)N2CC(c3ccc(F)cc3)C(c3cccc(Cl)c3)=N2)c1 (stereo not shown) [Example 5, 3-(3-chlorophenyl)-4-(4-fluorophenyl)-1-[(1-methyl-1H-imidazol-4-yl)sulfonyl]-4,5-dihydro-1H-pyrazole] | ≤ 1

SMILES | Ki [µM]
Cn1cnc(S(=O)(=O)N2CC(c3ccc(F)cc3)C(c3ccccc3)=N2)c1 (stereo not shown) [Example 4, 4-(4-fluorophenyl)-1-[(1-methyl-1H-imidazol-4-yl)sulfonyl]-3-phenyl-4,5-dihydro-1H-pyrazole] | ≤ 1
Cn1cnc(S(=O)(=O)N2CC(c3ccccc3)C(c3cc(C(F)(F)F)ccn3)=N2)c1 (stereo not shown) [Example 21, 2-{1-[(1-methyl-1H-imidazol-4-yl)sulfonyl]-4-phenyl-4,5-dihydro-1H-pyrazol-3-yl}-4-(trifluoromethyl)pyridine] | ≤ 10
Cn1cc(S(=O)(=O)N2CC(c3ccccc3)C(c3cc(C(F)(F)F)ccn3)=N2)cn1 (stereo not shown) [Example 22, 2-{1-[(1-methyl-1H-pyrazol-4-yl)sulfonyl]-4-phenyl-4,5-dihydro-1H-pyrazol-3-yl}-4-(trifluoromethyl)pyridine] | ≤ 10
Cn1cc(S(=O)(=O)N2CC(c3ccc(F)cc3)C(c3ccccc3)=N2)cn1 (stereo not shown) [Example 9, 4-{[4-(4-fluorophenyl)-3-phenyl-4,5-dihydro-1H-pyrazol-1-yl]sulfonyl}-1-methyl-1H-pyrazole] | ≥ 10
Cn1cnc(S(=O)(=O)N2CC(c3ccc(Cl)cc3)C(c3ccccc3)=N2)c1 (stereo not shown) [Example 24, 4-(4-chlorophenyl)-1-[(1-methyl-1H-imidazol-4-yl)sulfonyl]-3-phenyl-4,5-dihydro-1H-pyrazole] | ≤ 1
Cn1cc(S(=O)(=O)N2CC(c3ccccc3)C(c3ccc(Cl)cc3)=N2)nn1 (stereo not shown) [Example 12, 4-{[3-(4-chlorophenyl)-4-phenyl-4,5-dihydro-1H-pyrazol-1-yl]sulfonyl}-1-methyl-1H-1,2,3-triazole] | ≤ 0.01
Cn1cc(S(=O)(=O)N2CC(c3ccc(Cl)cc3)C(c3ccccc3)=N2)cn1 (stereo not shown) [Example 26, 4-{[4-(4-chlorophenyl)-3-phenyl-4,5-dihydro-1H-pyrazol-1-yl]sulfonyl}-1-methyl-1H-pyrazole] | ≤ 10
Cn1cc(S(=O)(=O)N2CC(c3ccc(F)cc3)C(c3cccc(Cl)c3)=N2)nn1 (stereo not shown) [Example 6, 4-{[3-(3-chlorophenyl)-4-(4-fluorophenyl)-4,5-dihydro-1H-pyrazol-1-yl]sulfonyl}-1-methyl-1H-1,2,3-triazole] | ≤ 0.1
Cn1cc(S(=O)(=O)N2CC(c3ccc(F)cc3)C(c3cccc(C(F)(F)F)c3)=N2)nn1 (stereo not shown) [Example 1, 4-({4-(4-fluorophenyl)-3-[3-(trifluoromethyl)phenyl]-4,5-dihydro-1H-pyrazol-1-yl}sulfonyl)-1-methyl-1H-1,2,3-triazole] | ≤ 10
Cn1cc(S(=O)(=O)N2CC(c3ccccc3)C(c3ccccn3)=N2)cn1 (stereo not shown) [Example 19, 2-{1-[(1-methyl-1H-pyrazol-4-yl)sulfonyl]-4-phenyl-4,5-dihydro-1H-pyrazol-3-yl}pyridine] | ≥ 10
Cn1cc(S(=O)(=O)N2CC(c3ccc(Cl)cc3)C(c3ccccc3)=N2)nn1 (stereo not shown) [Example 27, 4-{[4-(4-chlorophenyl)-3-phenyl-4,5-dihydro-1H-pyrazol-1-yl]sulfonyl}-1-methyl-1H-1,2,3-triazole] | ≤ 1
Cn1cnc(S(=O)(=O)N2CC(c3cccc(C#N)c3)C(c3ccccc3)=N2)c1 (stereo not shown) [Example 25, 3-{1-[(1-methyl-1H-imidazol-4-yl)sulfonyl]-3-phenyl-4,5-dihydro-1H-pyrazol-4-yl}benzonitrile] | ≤ 10
Cn1cc(S(=O)(=O)N2CC(c3ccccc3)C(c3cccc(OC(F)(F)F)c3)=N2)cn1 (stereo not shown) [Example 14, 1-methyl-4-({4-phenyl-3-[3-(trifluoromethoxy)phenyl]-4,5-dihydro-1H-pyrazol-1-yl}sulfonyl)-1H-pyrazole] | ≤ 10
Cn1cc(S(=O)(=O)N2CC(c3cccc(C#N)c3)C(c3ccccc3)=N2)nn1 (stereo not shown) [Example 28, 3-{1-[(1-methyl-1H-1,2,3-triazol-4-yl)sulfonyl]-3-phenyl-4,5-dihydro-1H-pyrazol-4-yl}benzonitrile] | ≤ 1
Cn1cnc(S(=O)(=O)N2CC(c3ccccc3)C(c3ccc(Cl)cc3)=N2)c1 (single isomer, unassigned) [Example 16b, 3-(4-chlorophenyl)-1-[(1-methyl-1H-imidazol-4-yl)sulfonyl]-4-phenyl-4,5-dihydro-1H-pyrazole] | ≤ 10

Source: US9550754B2, “4,5-dihydropyrazole derivatives, pharmaceutical compositions containing them, and their use in therapy” (ABBVIE DEUTSCHLAND GMBH & CO. KG, priority 2014, dated 2017)
